# Patent US8421457B2, “Methods and systems for magnetically resonating both a subject and a substance administered to the subject” (Applied Magnetics, LLC, priority 2008, dated 2013)
# How the values were obtained:
# [1] = tested on: diabetic peripheral neuropathy patients; experiment: Case report: diabetic neuropathy drugs combined with MR treatment; format: in vivo, human; details: diabetic neuropathy in both feet, taking the drugs; resonated four times for one hour each
# From the text: In one subject, a person suffered with diabetic neuropathy in both feet. […] The subject was taking the drugs Actos, Metaformin, and Lisinopril. The subject was resonated four times for one hour each time. […] As of fifteen months after the last treatment session, the sensation remained. Also, the subjects from Example 5 reported improvements with respect to symptoms relating to diabetic neuropathy (e.g., lack of sensation and pain).
# In providing MR treatment to a subject with diabetic neuropathy, an amplitude of about 0.455 μG to about 0.53 μG, with a frequency of about 12.7 Hz to about 14.84 Hz may be used.
# osteoarthritis patients = details: for results of continuing treatment / stiffness in hand, before treatment / pain in thumb, before treatment: person, taking the drugs; for results of continuing treatment: back pain (degenerative disk disease, sciatica), resonated approx. three times per week for more than one year; for stiffness in hand, before treatment / pain in thumb, before treatment: osteoarthritis, before MR; for stiffness in hand, before treatment: scale zero (feels great) to ten (feels terrible)
# From the text: In one example, a person suffered from back pain due to degenerative disk disease in their low back and sciatica. […] The subject was resonated approximately three times per week for more than one year.
# In another example, a person experienced arthritis pain in a number of joints, including their hips, hands, and shoulders. The subject also suffered from sciatica in their hips and legs. The subject was taking Celebrex. The subject was resonated at least three times per week for one to two hours per session.
# In a further example, a person experienced osteoarthritis pain and stiffness in their hands and finger joints. […] The subject was resonated twice for one-half hour per treatment. The subject was asked to rate their pain on a scale of zero (feels great) to ten (feels terrible) before and after treatment.
# Alternatively, an amplitude of about 0.01 μG to about 0.46 μG, with a frequency of about 0.2799 Hz to about 12.8765 Hz may be used.
# [2] = tested on: migraine and headache patients; experiment: Case reports: migraine and headache drugs combined with MR treatment; format: in vivo, human
# Procedure: The subject was resonated ten times for 1 to 1.5 hours per treatment over a one-month period.
# In another example, a person experienced pain associated with migraines. […] The subject received two one-hour treatments three months apart.
# In a further example, a person experienced pain associated with severe headaches. The subject took Aspirin to treat the pain. The subject received one treatment for one hour.
# subject with back pain = experiment: Case reports: low back pain, drugs combined with MR treatment; format: in vivo, human; details: person, taking the drugs; for decrease in pain level and stiffness level: four one-hour MR treatments over eleven days; for decrease in stiffness level: one MR treatment of one hour
# From the text: In one example, a person experienced pain and stiffness associated with their low back. The subject was taking Aspirin and Ibuprofen. Over the course of ten days, the subject received three treatments. The result was a decrease in pain level of 50-100%.
# In another example, a person experienced pain and stiffness associated with their low back. The subject was taking Aspirin and Ibuprofen. Over the course of eleven days, the subject received four treatments, each lasting one hour. The result was a decrease in pain level and stiffness level of 75%.
# In another example, a person experienced pain and stiffness associated with their low back. The subject was taking Aspirin and Ibuprofen. The subject received one treatment, lasting one hour. The result was a decrease in pain level of 60-70% and stiffness level of 90%.
# In providing MR treatment to a subject with back pain, an amplitude of about 0.01 μG to about 0.457 μG, with a frequency of about 0.2799 Hz to about 12.8 Hz may be used.
# injured patients = experiment: Case reports: injuries, drugs combined with MR treatment; format: in vivo, human; details: person, taking the drugs; for elimination of pain and stiffness: injured right knee (old Meniscus tear), 3 MR treatments of 1 hour over 5 days
# From the text: In another example, a person experienced pain and stiffness associated with a shoulder injury. The subject was taking Aspirin and Ibuprofin. The subject received two one-hour treatments three days apart. The result was a decrease in pain level of 50% and a decrease in stiffness of 50%.
# In a further example, a person experienced pain and stiffness associated with an injured knee. The subject was taking Aspirin and Ibuprofin. Over the course of 5 days, the subject received 3 treatments, each lasting 1.5 hours. The result was a decrease in pain level of 50-100% and a decrease in stiffness of 50%.
# In a further example, a person experienced pain and stiffness associated with an injured right knee that was the result of an old Meniscus tear injury. The subject was taking Aspirin and Ibuprofin. Over the course of 5 days, the subject received 3 treatments, each lasting 1 hour. The result was a 100% elimination of their pain an stiffness.
# In another example, a person experienced pain and stiffness associated with an injured left knee. The subject was taking Aspirin and Ibuprofin. Over the course of three days, the subject received two treatments, each lasting one hour. The result was a decrease in pain level of 75% and a decrease in stiffness of 50%.
# In providing MR treatment to a subject with pain and/or one or more injuries, an amplitude of about 0.01 μG to about 0.5 μG, with a frequency of about 0.2799 Hz to about 14.0 Hz may be used.
# [3] = tested on: patients with high cholesterol; experiment: Case report: cholesterol drug combined with MR treatment; format: in vivo, human; details: person taking Lipitor; three MR treatments per week for twenty months
# Procedure: In one example, a person was taking the drug Lipitor to manage their cholesterol levels. The subject began a series of three treatments per week for twenty months, and continuing on an ongoing basis. […] In order to provide MR treatment for cholesterol, the MR device settings may range from an amplitude from about 0.4998 μG to about 0.075 μG and a frequency from about 2.1 Hz to about 13.9996 Hz, or ranges within these ranges.
# fibromyalgia patients = experiment: Case reports: fibromyalgia, drugs combined with MR treatment; format: in vivo, human; details: same subject; thirteen MR treatments within a two-month period
# Procedure: In one example, a person experienced fibromyalgia for a number of years. The subject also experienced insomnia, restless legs, and chronic fatigue. The subject took the drug Naproxen (Aleve). The subject received seven consecutive days of 1 to 1.5 hour treatments.
# Their primary complaint was back pain. […] The subject received thirteen treatments within a two-month period. […] Approximately two months after completing their first series of treatment, they began a second regimen of ten treatments within a two-month period.
# In a further example, a person at least fifty years old suffered from fibromyalgia for a number of years. […] The subject received daily (when possible) treatments for approximately one year.
# cancer patients = details: in vivo
# Procedure: In one example, carboplaton and taxol are cancer drugs for treating cancer, including ovarian cancer.
# For this protocol, the MR device settings may be, for example, amplitude=about 0.017 μG to about 0.3 μG, frequency=about 0.3 Hz to about 9.6 Hz, waveform=sine or square, and MR treatment duration=about 80 minutes.
# [4] = same subject, after being resonated twice for one-half hour per treatment, scale zero to ten
# [5] = injured knee, 3 MR treatments of 1.5 hours over 5 days
# [6] = injured left knee, two one-hour MR treatments over three days
# [7] = shoulder injury, two one-hour MR treatments three days apart
smiles,measurement,setting,value
CCc1ccc(CCOc2ccc(CC3SC(=O)NC3=O)cc2)nc1 (stereo not drawn) [Actos],result of treatment on sensation in feet,[1],"sensation returned for touch, texture, and temperature"
CC(=O)Oc1ccccc1C(=O)O [Aspirin],results of continuing treatment,osteoarthritis patients,"significantly less pain, an improved range of motion, and improved sleep"
same,"stiffness in hand, before treatment",osteoarthritis patients,two
same,"pain in thumb, before treatment",osteoarthritis patients; scale zero to ten,three
same,"pain in thumb, after treatment",osteoarthritis patients; [4],zero
same,"stiffness in hand, after treatment",osteoarthritis patients; [4],zero
same,pain before treatment,"[2]; person, severe headaches, taking Aspirin, before MR",6.5
same,pain after treatment,"[2]; same subject, after one MR treatment for one hour",zero
same,decrease in pain level and stiffness level,subject with back pain,75%
same,decrease in stiffness level,subject with back pain,90%
same,decrease in stiffness,injured patients; [5],50%
same,decrease in pain level,injured patients; [6],75%
same,decrease in stiffness,injured patients; [6],50%
same,elimination of pain and stiffness,injured patients,100%
same,decrease in pain level,injured patients; [7],50%
same,decrease in stiffness,injured patients; [7],50%
CC(C)Cc1ccc(C(C)C(=O)O)cc1 (stereo not drawn) [Ibuprofin],results of continuing treatment,osteoarthritis patients,"significantly less pain, an improved range of motion, and improved sleep"
same,"stiffness in hand, before treatment",osteoarthritis patients,two
same,"pain in thumb, before treatment",osteoarthritis patients; scale zero to ten,three
same,results on migraines,"[2]; person with migraines taking the drugs, resonated ten times, 1 to 1.5 hours, over one month",decreased frequency and duration of migraines
same,pain level before being resonated,"[2]; person with migraines taking the drugs, scale of zero to ten",nine
same,reduction in pain level,"[2]; person with migraines taking the drugs, two one-hour MR treatments three months apart",50%
same,pain level after treatment,"[2]; same subject, after ten MR treatments over one month, scale of zero to ten",two
same,decrease in pain level and stiffness level,subject with back pain,75%
same,decrease in stiffness level,subject with back pain,90%
same,decrease in stiffness,injured patients; [5],50%
same,decrease in pain level,injured patients; [6],75%
same,decrease in stiffness,injured patients; [6],50%
same,elimination of pain and stiffness,injured patients,100%
same,decrease in pain level,injured patients; [7],50%
same,decrease in stiffness,injured patients; [7],50%
CC(C)c1c(C(=O)Nc2ccccc2)c(-c2ccccc2)c(-c2ccc(F)cc2)n1CC[C@@H](O)C[C@@H](O)CC(=O)O [Lipitor],cholesterol levels,[3],at the best ratio in twenty years
NCCCC[C@H](N[C@@H](CCc1ccccc1)C(=O)O)C(=O)N1CCC[C@H]1C(=O)O [Lisinopril],result of treatment on sensation in feet,[1],"sensation returned for touch, texture, and temperature"
same,"pain level after treatment, first series",fibromyalgia patients,0.5
CN(C)C(=N)NC(=N)N [Metaformin],result of treatment on sensation in feet,[1],"sensation returned for touch, texture, and temperature"
N.N.O=C([O-])C1(C(=O)[O-])CCC1.[Pt+2] [carboplaton],reported effects after taking the cancer drugs,cancer patients,increased lethargy and decreased energy and motivation
